Strand notation (5' to 3'): a small letter for the sugar, then the base; units joined by * are phosphorothioate-linked, units joined directly phosphodiester-linked; [ ] holds rarer units or linkages, { } end groups; capitals alone tell only the bases. k = constrained ethyl (cEt); [5mC] = 5-methylcytosine; d = 2'-deoxy (DNA)

This note sets out measurements from patent US10517889B2, “Modulators of SMAD7 expression” (Ionis Pharmaceuticals, Inc., priority 2017, dated 2019).

The data set relates to human SMAD7 mRNA. Briefly: Antisense inhibition of human SMAD7 mRNA expression in Hep3B cells by 3-10-3 cEt gapmers, 10,000 nM, electroporation (Example 2). It is filed as cell-based. The following applies: SMAD7 mRNA, Hep3B cells, electroporation with 10,000 nM antisense oligonucleotide, approximately 24 hours, primer probe set RTS5062, relative to untreated control cells. In outline: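 SMAD7 mRNA was measured by real-time PCR (RTS5062) with RiboGreen total-RNA normalization, about 24 h after 10,000 nM gapmer was delivered by electroporation into Hep3B cells at 20,000 per well. Gapmers were 16-mer 3-10-3 cEt, fully phosphorothioate; values are % inhibition versus untreated controls.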
On to “829884 (antisense kT*kG*k[5mC]*dA*dG*dG*d[5mC]*dT*dG*dT*dA*d[5mC]*dG*k[5mC]*k[5mC]*kT) [compound 829884]”, for which the % Inhibition (as a rule, the drop in the measured response relative to a control, in per cent) is listed as 24%.

“829885 (antisense k[5mC]*k[5mC]*kG*d[5mC]*dT*dG*d[5mC]*dA*dG*dG*d[5mC]*dT*dG*kT*kA*k[5mC]) [compound 829885]”: the “% Inhibition” value worked out at 31%. With “829886 (antisense kG*kT*kG*dG*dT*d[5mC]*dA*dT*dT*dG*dG*dG*d[5mC]*k[5mC]*kG*k[5mC]) [compound 829886]”, the “% Inhibition” value was determined as 6%. As for “829887 (antisense k[5mC]*kG*kT*dG*dG*dT*d[5mC]*dA*dT*dT*dG*dG*dG*k[5mC]*k[5mC]*kG) [compound 829887]”, the “% Inhibition” value is 47%. As for “829888 (antisense kG*kT*k[5mC]*d[5mC]*dA*d[5mC]*dG*dG*d[5mC]*dT*dG*d[5mC]*dT*kG*k[5mC]*kA) [compound 829888]”, the “% Inhibition” value is recorded as 47%. As to “829889 (antisense k[5mC]*kG*kT*d[5mC]*d[5mC]*dA*d[5mC]*dG*dG*d[5mC]*dT*dG*d[5mC]*kT*kG*k[5mC]) [compound 829889]”, the “% Inhibition” value is given as 48%.

For the substance “829890 (antisense kA*kA*kG*d[5mC]*d[5mC]*d[5mC]*dG*dT*d[5mC]*d[5mC]*dA*d[5mC]*dG*kG*k[5mC]*kT) [compound 829890]”, the “% Inhibition” value was 0%.

With “829891 (antisense kA*kT*k[5mC]*dT*dG*d[5mC]*dA*d[5mC]*dG*dG*dT*dA*dA*kA*kG*k[5mC]) [compound 829891]”, the “% Inhibition” value was determined as 25%. For “829892 (antisense kG*kA*kT*d[5mC]*dT*dG*d[5mC]*dA*d[5mC]*dG*dG*dT*dA*kA*kA*kG) [compound 829892]”, the “% Inhibition” value was 32%. As to “829893 (antisense kT*kG*kA*dT*d[5mC]*dT*dG*d[5mC]*dA*d[5mC]*dG*dG*dT*kA*kA*kA) [compound 829893]”, the “% Inhibition” value was determined as 14%. In the case of “829894 (antisense kG*k[5mC]*kT*dG*dA*dT*d[5mC]*dT*dG*d[5mC]*dA*d[5mC]*dG*kG*kT*kA) [compound 829894]” it was 41%. Under “829895 (antisense kT*k[5mC]*kA*d[5mC]*dA*dA*dA*dG*d[5mC]*dT*dG*dA*dT*k[5mC]*kT*kG) [compound 829895]” stands 37%; under “829896 (antisense k[5mC]*kG*kG*dG*dT*dG*dT*dA*dG*d[5mC]*dA*d[5mC]*dT*kG*kG*k[5mC]) [compound 829896]”, 44%. For the substance “829897 (antisense kG*k[5mC]*kG*dG*dG*dT*dG*dT*dA*dG*d[5mC]*dA*d[5mC]*kT*kG*kG) [compound 829897]”, the “% Inhibition” value turned out to be 40%.

As to “829898 (antisense kT*kG*kG*d[5mC]*dG*dG*dG*dT*dG*dT*dA*dG*d[5mC]*kA*k[5mC]*kT) [compound 829898]”, the “% Inhibition” value is on record as 31%. Regarding “829899 (antisense kA*k[5mC]*kG*dG*dG*d[5mC]*dA*dG*d[5mC]*dT*dG*d[5mC]*dT*kG*kA*kT) [compound 829899]”, the “% Inhibition” value is reported as 20%. In the case of “829900 (antisense k[5mC]*kA*k[5mC]*dG*dG*dG*d[5mC]*dA*dG*d[5mC]*dT*dG*d[5mC]*kT*kG*kA) [compound 829900]” it was 0%; in that of “829901 (antisense kA*kG*k[5mC]*dA*d[5mC]*dG*dG*dG*d[5mC]*dA*dG*d[5mC]*dT*kG*k[5mC]*kT) [compound 829901]”, 10%. Take “829902 (antisense k[5mC]*kA*kG*d[5mC]*dA*d[5mC]*dG*dG*dG*d[5mC]*dA*dG*d[5mC]*kT*kG*k[5mC]) [compound 829902]”: the “% Inhibition” value turned out to be 0%. In the case of “829903 (antisense k[5mC]*kT*kG*dT*dT*dG*dA*dA*dG*dA*dT*dG*dA*k[5mC]*k[5mC]*kT) [compound 829903]” it was 25%; in that of “829904 (antisense kG*k[5mC]*kT*dG*dT*dT*dG*dA*dA*dG*dA*dT*dG*kA*k[5mC]*k[5mC]) [compound 829904]”, 21%. As to “829905 (antisense k[5mC]*kG*kG*d[5mC]*dT*dG*dT*dT*dG*dA*dA*dG*dA*kT*kG*kA) [compound 829905]”, the “% Inhibition” value was 20%. Regarding “829906 (antisense k[5mC]*k[5mC]*kG*dG*d[5mC]*dT*dG*dT*dT*dG*dA*dA*dG*kA*kT*kG) [compound 829906]”, the “% Inhibition” value came to 0%. “829907 (antisense kA*k[5mC]*k[5mC]*dG*dG*d[5mC]*dT*dG*dT*dT*dG*dA*dA*kG*kA*kT) [compound 829907]”: the “% Inhibition” value is listed as 23%. Under “829908 (antisense k[5mC]*kT*kA*d[5mC]*d[5mC]*dG*dG*d[5mC]*dT*dG*dT*dT*dG*kA*kA*kG) [compound 829908]” stands 1%.

Turning to “829909 (antisense k[5mC]*kG*kG*d[5mC]*dT*dA*d[5mC]*d[5mC]*dG*dG*d[5mC]*dT*dG*kT*kT*kG) [compound 829909]”, the “% Inhibition” value was determined as 34%. For “829910 (antisense kG*kA*kG*dT*dT*dT*dG*d[5mC]*dA*dT*dG*dA*dA*kA*kA*kG) [compound 829910]”, the “% Inhibition” value stood at 49%. On to “829911 (antisense k[5mC]*kG*kA*d[5mC]*d[5mC]*dA*dA*dA*dG*dA*dG*dT*dT*kT*kG*k[5mC]) [compound 829911]”, for which the “% Inhibition” value amounted to 52%. Consider “829912 (antisense kA*kA*k[5mC]*dG*dA*d[5mC]*d[5mC]*dA*dA*dA*dG*dA*dG*kT*kT*kT) [compound 829912]”, for which the “% Inhibition” value amounted to 24%.

For the substance “829913 (antisense k[5mC]*k[5mC]*kT*dT*dG*dG*dG*dT*dT*dA*dT*dG*dA*k[5mC]*kG*kG) [compound 829913]”, the “% Inhibition” value amounted to 40%. In the case of “829914 (antisense kA*k[5mC]*k[5mC]*dT*dT*dG*dG*dG*dT*dT*dA*dT*dG*kA*k[5mC]*kG) [compound 829914]”, the “% Inhibition” value came to 35%. Consider “829915 (antisense kG*kG*kT*dA*d[5mC]*d[5mC]*dT*dT*dG*dG*dG*dT*dT*kA*kT*kG) [compound 829915]”, for which the “% Inhibition” value is 22%. “829916 (antisense kG*kA*kA*dG*dA*dG*dT*dT*dA*dG*dG*dT*dG*kT*k[5mC]*kA) [compound 829916]”: the “% Inhibition” value came out at 33%.

Consider “829917 (antisense kA*kG*kT*dG*dT*dA*dT*dG*dA*dG*dT*dT*dG*kT*kA*kG) [compound 829917]”, for which the “% Inhibition” value is 45%. Take “829918 (antisense kG*kA*kG*dT*dG*dT*dA*dT*dG*dA*dG*dT*dT*kG*kT*kA) [compound 829918]”: the “% Inhibition” value is recorded as 53%. As to “829919 (antisense k[5mC]*kG*kA*dG*dT*dG*dT*dA*dT*dG*dA*dG*dT*kT*kG*kT) [compound 829919]”, the “% Inhibition” value is 47%. In the case of “829920 (antisense kA*kT*kA*d[5mC]*dG*dA*dG*dT*dG*dT*dA*dT*dG*kA*kG*kT) [compound 829920]”, the “% Inhibition” value was determined as 30%.

“829921 (antisense kT*k[5mC]*kA*dT*dA*d[5mC]*dG*dA*dG*dT*dG*dT*dA*kT*kG*kA) [compound 829921]”: the “% Inhibition” value stood at 10%. For “829922 (antisense kG*kT*kA*dT*d[5mC]*dA*dT*dA*d[5mC]*dG*dA*dG*dT*kG*kT*kA) [compound 829922]”, the “% Inhibition” value is 56%.

Turning to “829923 (kA*kG*kT*dA*dT*d[5mC]*dA*dT*dA*d[5mC]*dG*dA*dG*kT*kG*kT; antisense) [compound 829923]”, the “% Inhibition” value is given as 54%. In the case of “829924 (k[5mC]*kT*k[5mC]*dA*dT*dT*dG*dA*dG*d[5mC]*dT*dA*dA*kG*kA*kA; antisense) [compound 829924]”, the “% Inhibition” value is 25%.

For “829925 (kA*kT*kG*d[5mC]*dT*d[5mC]*dA*dT*dT*dG*dA*dG*d[5mC]*kT*kA*kA; antisense) [compound 829925]”, the “% Inhibition” value was determined as 37%.

Take “829926 (k[5mC]*kA*kT*dG*d[5mC]*dT*d[5mC]*dA*dT*dT*dG*dA*dG*k[5mC]*kT*kA; antisense) [compound 829926]”: the “% Inhibition” value was 24%. In the case of “829927 (kA*kA*kG*dT*d[5mC]*dT*dA*dA*dA*d[5mC]*dA*dT*dG*k[5mC]*kT*k[5mC]; antisense) [compound 829927]”, the “% Inhibition” value came to 64%. Regarding “829928 (k[5mC]*kA*k[5mC]*dT*dA*d[5mC]*dA*dA*dT*dG*d[5mC]*dT*dA*kA*kA*kT; antisense) [compound 829928]”, the “% Inhibition” value turned out to be 26%. On to “829929 (kA*k[5mC]*k[5mC]*dA*dA*dT*d[5mC]*dT*dT*dG*dT*dG*dT*kT*kT*kA; antisense) [compound 829929]”, for which the “% Inhibition” value stood at 19%. In the case of “829930 (k[5mC]*kA*k[5mC]*d[5mC]*dA*dA*dT*d[5mC]*dT*dT*dG*dT*dG*kT*kT*kT; antisense) [compound 829930]” it was 0%. For the substance “829931 (kA*kA*k[5mC]*dA*d[5mC]*d[5mC]*dA*dA*dT*d[5mC]*dT*dT*dG*kT*kG*kT; antisense) [compound 829931]”, the “% Inhibition” value is on record as 0%. As for “829932 (kT*kG*kA*dT*dA*dA*d[5mC]*dA*d[5mC]*d[5mC]*d[5mC]*dA*dT*kA*kG*kA; antisense) [compound 829932]”, the “% Inhibition” value stood at 41%. For “829933 (kG*kT*kG*dA*dT*dA*dA*d[5mC]*dA*d[5mC]*d[5mC]*d[5mC]*dA*kT*kA*kG; antisense) [compound 829933]”, the “% Inhibition” value is recorded as 38%.

For “829934 (kT*kA*kG*dG*dT*dG*dA*dT*dA*dA*d[5mC]*dA*d[5mC]*k[5mC]*k[5mC]*kA; antisense) [compound 829934]”, the “% Inhibition” value was 26%. For the substance “829935 (k[5mC]*kT*kA*dG*dG*dT*dG*dA*dT*dA*dA*d[5mC]*dA*k[5mC]*k[5mC]*k[5mC]; antisense) [compound 829935]”, the “% Inhibition” value stood at 0%.
